Test results as given in patent US9388170B2, “Substituted aminoquinazolines useful as kinases inhibitors” (TELIGENE LTD., priority 2012, dated 2016).
Values after ≈ are worked out from the molar mass of the structure shown. Read-outs that look alike come from different tables or passages of the source.

Legend:
[1] = In vivo NCI-H1975 xenograft study body weight change; details: nude mice, 15 mg/kg
Method: (§1) A representative protocol for the in vivo experiment is as followed to establish the subcutaneous NCI-H1975 cell line xenograft model in nude mice and to evaluate the in vivo therapeutic efficacy of the compounds: H1975 cells were cultured in RPMI1640 containing 10% fetal bovine serum, 1% L-glutamine, 100 U/mL penicillinG and 100 μg/mL streptomycin. Cells in logarithmic growth phase were harvested and resuspended in 1×PBS for implantation. Tumor xenografts were established by injecting tumor cells 5×10^6/mouse into the right flank by sc under sterile conditions. When the tumors reached an appropriate size (100-200 mm^3), mice were randomized into 6 mice per group (8 mice in control group). The tumors were measured using a caliper in two dimensions, length (a), and width (b). Tumor volumes were estimated from measurements of two diameters of the individual tumors as follows: Tumor Volume(mm^3)=(a×b^2)/2 The tumor sizes and animal body weights were measured twice a week. Mice were observed daily for clinical signs. Blood samples were collected 2 hours after last treatment, plasma samples were prepared and stored at -80° C. Tumor tissues were separated, weighed, taken picture, and subsequently stored at -80° C. for further analysis. All animal experiments were performed in accordance with the Guidelines for Use and Care of Animals of the University of Traditional Medicine. The parameters for in vivo efficacy evaluation were calculated according to the guidance of SFDA. Percent T/C (%) was calculated with the following formula: T/C (%)=(TRTV/CRTV)×100%, where TRTV and CRTV stand for relative tumor volume in treatment group and vehicle control group, respectively. Relative tumor volume (RTV) was calculated using the formula: RTV=Vt/V0, where Vt represents volume on testing day, and V0 represents volume on first day of treatment.

[2] = In vivo NCI-H1975 study AST and ALT change; details: NCI-H1975 xenograft, nude mice, 15 mg/kg; in U/L (unit assumed)
Method: as §1

[3] = In vivo A431 xenograft body weight change; details: nude mice, 10 mg/kg
Method: (§2) A representative protocol for the in vivo experiment to establish the subcutaneous A431 cell line xenograft model in nude mice and to evaluate the in vivo therapeutic efficacy of the compounds is similar to the protocol described for subcutaneous NCI—H1975 cell line xenograft model in nude mice. […] Tumor growth inhibition (TGI, %) was calculated.

SK—Br-3 = assay: Cell proliferation assay (MTT), SK-Br-3; format: cell-based; details: Homo sapiens, SK—Br-3 cells, 72 hours, read-out: potency (IC50), SK—Br-3 cell assay
Method: (§3) A Representative Number of Compounds were Assayed Against Different Cancer Cell Lines Such as A431, BT474, NCI—H1975, SK—OV-3, SK—Br-3 and A549 Using the Cell Proliferation Assays:
(§4) 1. 5×10^3 cells per well in 100 μl of medium were seeded in 96-well plate, here the medium contained 5% FBS
(§5) 2. 24 hours later, 100 μl fresh medium was added with various concentrations of compounds into each well, while the medium here was free of FBS.
(§6) 3. After the cells were treated with compounds for 72 hours, 20 μl MTT (5 mg/ml) was added into each well, and then the assay plate was incubated at 37° C. for 4 more hours.
(§7) 4. The assay plate was centrifuged at 800 g for 10 min. The medium was aspirated, 150 μl DMSO was added into each well. The plate was gently shaken for 10 min.
(§8) 5. The absorbance at 570 nm was measured on the plate reader.

[4] = Solubility measurement (HPLC); format: physicochemical; details: thermodynamic from solid
Method: The compound was diluted with acetonitrile to 100 mL.
The solution was shook for 2 minutes and left for 30 minutes at 25° C. After standing for 30 minutes, precipitate was formed in the bottom of the EP. The solutions was filtered through 0.2 um membrane filter, and then diluted by 50 times with water.
The standard and sample solutions were injected into the HPLC on a Shim-Pack CLC-ODS C18 column (150 mm×6.0 mm, 5 um) with the same volume. The mobile phase consisted of acetonitrile with 2% […] −20 mM KH2PO4 buffer (pH=6.8) at a flow rate of 1 mL/minutes (40:60). The detection wavelength is at 264 nm. Calculation: solubility of sample=the concentration of standard×Area of sample×50/Area of standard.

A549 = assay: Cell proliferation assay (MTT), A549; format: cell-based; details: Homo sapiens, A549 cells, 72 hours, read-out: potency (IC50), A549 cell assay
Method: as §3, §4, §5, §6, §7, §8

SK—OV-3 = assay: Cell proliferation assay (MTT), SK-OV-3; format: cell-based; details: Homo sapiens, SK—OV-3 cells, 72 hours, read-out: potency (IC50), SK—OV-3 cell assay
Method: as §3, §4, §5, §6, §7, §8

A431 cell line xenograft = assay: In vivo subcutaneous A431 xenograft efficacy; details: nude mice, 10 mg/kg by oral gavage once daily for 14 days
Method: as §2

NCI—H1975 = assay: Cell proliferation assay (MTT), NCI-H1975; format: cell-based; details: Homo sapiens, NCI—H1975 cells, 72 hours, read-out: potency (IC50), NCI—H1975 cell assay
Method: as §3, §4, §5, §6, §7, §8

EGFR (T790M/L858R) = EGFR (T790M/L858R) (Homo sapiens (Human), UniProt P00533, L858R/T790M); assay: In vitro EGFR (T790M/L858R) kinase activity inhibition assay (Kinase-Glo Plus luminescence); format: biochemical; details: 10 μM ATP, read-out: potency (IC50), enzyme assay (EGFR/T790M)
EGFR (T790M/L858R), sequence (P00533 25-1210 T790M/L858R): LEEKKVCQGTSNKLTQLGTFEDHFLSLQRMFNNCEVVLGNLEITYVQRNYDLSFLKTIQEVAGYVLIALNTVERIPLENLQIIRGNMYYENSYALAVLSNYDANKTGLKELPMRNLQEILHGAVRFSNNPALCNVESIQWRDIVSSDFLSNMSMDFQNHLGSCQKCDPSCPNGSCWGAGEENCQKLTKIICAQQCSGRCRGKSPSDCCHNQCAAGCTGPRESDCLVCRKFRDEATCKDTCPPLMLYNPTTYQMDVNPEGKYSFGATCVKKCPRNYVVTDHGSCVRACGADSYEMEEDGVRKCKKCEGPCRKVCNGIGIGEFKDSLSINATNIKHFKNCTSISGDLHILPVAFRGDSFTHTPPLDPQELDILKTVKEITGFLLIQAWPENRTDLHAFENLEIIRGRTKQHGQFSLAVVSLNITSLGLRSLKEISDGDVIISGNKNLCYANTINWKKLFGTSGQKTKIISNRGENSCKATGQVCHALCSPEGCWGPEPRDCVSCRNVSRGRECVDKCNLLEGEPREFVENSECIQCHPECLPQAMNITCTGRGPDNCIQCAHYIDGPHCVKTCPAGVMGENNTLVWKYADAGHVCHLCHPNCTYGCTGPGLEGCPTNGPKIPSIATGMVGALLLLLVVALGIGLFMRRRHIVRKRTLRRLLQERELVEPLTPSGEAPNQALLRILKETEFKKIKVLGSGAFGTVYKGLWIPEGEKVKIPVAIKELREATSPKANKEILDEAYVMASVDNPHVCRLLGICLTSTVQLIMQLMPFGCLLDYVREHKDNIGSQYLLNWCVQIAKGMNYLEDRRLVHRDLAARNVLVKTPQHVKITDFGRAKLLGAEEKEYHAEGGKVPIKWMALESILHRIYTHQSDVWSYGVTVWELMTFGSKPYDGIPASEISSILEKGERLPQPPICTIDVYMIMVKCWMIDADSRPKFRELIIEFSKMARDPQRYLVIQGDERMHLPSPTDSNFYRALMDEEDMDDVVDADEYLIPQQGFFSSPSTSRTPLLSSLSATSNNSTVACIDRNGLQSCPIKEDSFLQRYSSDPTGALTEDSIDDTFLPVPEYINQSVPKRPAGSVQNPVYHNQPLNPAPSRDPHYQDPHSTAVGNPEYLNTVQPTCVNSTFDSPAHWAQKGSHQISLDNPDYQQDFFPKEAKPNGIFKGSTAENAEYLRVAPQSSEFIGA
Method: 2. […] It measures kinase activity by quantitating the amount of ATP remaining in solution following a kinase reaction. The luminescent signal from the assay is correlated with the amount of ATP present and is inversely correlated with the amount of kinase activity. […] Luminescence signal was measured using a BioTek Synergy 2 microplate reader.
3. […] The luminescence data were analyzed using the computer software, Graphpad Prism. […] The IC50 value was determined by the concentration causing a half-maximal percent activity.

[5] = test system: NCI—H1975 cell line xenograft; assay: In vivo subcutaneous NCI-H1975 xenograft efficacy; details: nude mice
Method: A representative protocol for the in vivo experiment is as followed to establish the subcutaneous NCI—H1975 cell line xenograft model in nude mice and to evaluate the in vivo therapeutic efficacy of the compounds: H1975 cells were cultured in RPMI1640 containing 10% fetal bovine serum, 1% L-glutamine, 100 U/mL penicillinG and 100 μg/mL streptomycin. Cells in logarithmic growth phase were harvested and resuspended in 1×PBS for implantation.
Tumor xenografts were established by injecting tumor cells 5×10^6/mouse into the right flank by sc under sterile conditions. When the tumors reached an appropriate size (100-200 mm^3), mice were randomized into 6 mice per group (8 mice in control group). The tumors were measured using a caliper in two dimensions, length (a), and width (b). […]
The tumor sizes and animal body weights were measured twice a week. […] The parameters for in vivo efficacy evaluation were calculated according to the guidance of SFDA. Percent T/C (%) was calculated with the following formula: T/C (%)=(TRTV/CRTV)×100%, where TRTV and CRTV stand for relative tumor volume in treatment group and vehicle control group, respectively. Relative tumor volume (RTV) was calculated using the formula: RTV=Vt/V0, where Vt represents volume on testing day, and V0 represents volume on first day of treatment. […]

A431 = assay: Cell proliferation assay (MTT), A431; format: cell-based; details: Homo sapiens, A-431, A431 cells, 72 hours
Method: as §3, §4, §5, §6, §7, §8

BT474 = assay: Cell proliferation assay (MTT), BT474; format: cell-based; details: Homo sapiens, BT-474, BT474 cells, 72 hours
Method: as §3, §4, §5, §6, §7, §8

[6] = aqueous buffer, pH 6.8 buffer solution (20 mM), 25° C., read-out: Solubility at pH 6.8
[7] = buffer solution (pH 7.6), 25 °C, pH 7.6, aqueous buffer, read-out: Solubility at pH 7.6

SMILES	Day 7 Weight change [1] [%]	ALT [2]	AST [2]	Body weight change, Day 7 [3] [%]	Body weight change, Day 10 [3] [%]	IC50 (SK—Br-3) [µM]	solubility at 30 min [4, 6] [µg/mL]	solubility at 30 min [4, 7] [µg/mL]	IC50 (A549) [µM]	IC50 (SK—OV-3) [µM]	Tumor growth inhibition (TGI, %) (A431 cell line xenograft) [%]	IC50 (NCI—H1975) [µM]	IC50 (EGFR (T790M/L858R)) [µM]	efficacy in the NCI—H1975 xenograft study [5]	IC50 (A431) [µM]	IC50 (BT474) [µM]
CN(C)C/C=C/C(=O)Nc1cc2c(Nc3ccc(F)c(Cl)c3)ncnc2cc1O[C@H]1CCOC1 [Afatinib, reference compound]	−0.9	49.50	265.67	−2.2	0.4	–	–	–	–	–	–	–	–	–	–	–
C#Cc1cccc(Nc2ncnc3cc(O[C@H]4CCOC4)c(NC(=O)/C=C/CN(CC)CC)cc23)c1 [Compound 20, (S,E)-4-(diethylamino)-N-(4-((3-ethynylphenyl)amino)-7-((tetrahydrofuran-3-yl)oxy)quinazolin-6-yl)but-2-enamide]	3.5	41.67	142.33	1.5	4.3	< 10	3370 (≈ 6950 µM)	238 (≈ 490 µM)	< 10	< 10	94	< 10	–	–	–	–
C#Cc1cccc(Nc2ncnc3cc(O[C@H]4CCOC4)c(NC(=O)/C=C/CN(C)C)cc23)c1 [Compound 13, (S,E)-4-(dimethylamino)-N-(4-((3-ethynylphenyl)amino)-7-((tetrahydrofuran-3-yl)oxy)quinazolin-6-yl)but-2-enamide]	0.1	–	–	–	–	< 10	150 (≈ 328 µM)	25 (≈ 54.6 µM)	< 10	< 10	–	< 10	< 0.1	good efficacy	3.1	0.057
